{"source": "paper PMC9535023", "about": "“Inhibition of phospholipase D1 induces immunogenic cell death and potentiates cancer immunotherapy in colorectal cancer” (Experimental & Molecular Medicine, 2022)", "key": {"DLD1 cells [1]": {"system": "DLD1 cells", "experiment": "Cell cycle analysis (BrdU/7-AAD flow cytometry), DLD1", "type": "cell-based", "procedure": "(§1) For cell cycle analysis, the cells were treated with Α3373 or 5-FU. The cells were labeled with 10 μΜ bromodeoxyuridine (BrdU) for 2 h. Subsequently, the cells were stained with 7-aminoactinomycin D (7-AAD, Invitrogen) and a fluorescein isothiocyanate (FITC)-conjugated anti-BrdU antibody (Invitrogen). Apoptotic cells were detected using an Annexin V-FITC Apoptosis Detection Kit (BD Biosciences). The cells were analyzed using BD FACSAria III (BD Biosciences), and data analysis was performed using FlowJo v10.0 (BD Biosciences)."}, "FHC cells [2]": {"system": "FHC cells", "experiment": "Cell cycle analysis (BrdU/7-AAD flow cytometry), FHC", "type": "cell-based", "conditions": "FHC normal fetal colonic mucosa cells", "procedure": "as §1"}, "FHC cells [3]": {"system": "FHC cells", "experiment": "Apoptosis assay (annexin V flow cytometry), FHC", "type": "cell-based", "procedure": "as §1"}, "DLD1 cells [4]": {"system": "DLD1 cells", "experiment": "Apoptosis assay (annexin V flow cytometry), DLD1", "type": "cell-based", "procedure": "as §1"}, "PLD [5]": {"system": "PLD", "experiment": "PLD activity assay in DLD1 cells", "type": "cell-based", "conditions": "compared to unsubstituted congener", "procedure": "(§2) Cells were labeled with [H^3] myristic acid, and PLD activity was assessed by measuring the formation of [H^3] phosphatidylbutanol, which is the product of PLD-mediated transphosphatidylation, in the presence of 1-butanol, as previously described."}, "PLD1": {"target": "T1, PLD1 (Homo sapiens, UniProt Q13393)", "T1 construct": "endogenous in cells", "T1 sequence (Q13393 1-1074)": "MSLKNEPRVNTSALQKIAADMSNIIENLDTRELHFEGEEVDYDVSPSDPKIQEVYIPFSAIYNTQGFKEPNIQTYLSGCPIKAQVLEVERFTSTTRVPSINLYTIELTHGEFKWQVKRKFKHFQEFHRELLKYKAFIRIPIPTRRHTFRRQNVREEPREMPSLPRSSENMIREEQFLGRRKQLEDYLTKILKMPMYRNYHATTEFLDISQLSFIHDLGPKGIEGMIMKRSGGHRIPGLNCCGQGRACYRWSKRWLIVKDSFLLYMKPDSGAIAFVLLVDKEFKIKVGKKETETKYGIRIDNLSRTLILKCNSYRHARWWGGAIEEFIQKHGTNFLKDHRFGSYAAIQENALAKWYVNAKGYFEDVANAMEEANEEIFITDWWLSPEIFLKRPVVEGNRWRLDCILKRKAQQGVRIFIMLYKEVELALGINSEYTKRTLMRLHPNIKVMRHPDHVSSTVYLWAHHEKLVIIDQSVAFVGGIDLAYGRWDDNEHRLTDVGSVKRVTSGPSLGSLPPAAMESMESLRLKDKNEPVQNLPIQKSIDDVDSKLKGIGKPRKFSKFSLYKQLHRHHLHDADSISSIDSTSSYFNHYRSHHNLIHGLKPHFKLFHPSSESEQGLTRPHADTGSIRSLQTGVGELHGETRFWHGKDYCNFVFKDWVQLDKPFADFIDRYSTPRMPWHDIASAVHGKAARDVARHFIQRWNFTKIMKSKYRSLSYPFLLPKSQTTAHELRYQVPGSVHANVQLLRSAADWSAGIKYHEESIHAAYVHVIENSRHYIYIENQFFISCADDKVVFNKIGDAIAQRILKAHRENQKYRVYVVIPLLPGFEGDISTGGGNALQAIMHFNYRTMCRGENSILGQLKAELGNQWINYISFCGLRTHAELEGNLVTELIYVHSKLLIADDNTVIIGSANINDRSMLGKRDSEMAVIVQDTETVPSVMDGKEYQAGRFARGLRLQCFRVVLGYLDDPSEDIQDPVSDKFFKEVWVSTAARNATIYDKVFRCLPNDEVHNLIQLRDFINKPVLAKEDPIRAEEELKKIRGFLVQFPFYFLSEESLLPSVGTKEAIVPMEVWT", "experiment": "Streptavidin pull-down assay, PLD1", "type": "binding", "conditions": "10 μM, various CRC cell lysates", "procedure": "Cells were lysed in passive lysis buffer (Promega). Cell lysates were incubated with biotinylated chemicals (A4333, 10 μM) or biotin (10 μM) at 37 °C for 1 h and treated with streptavidin beads (Thermo Scientific) at 20 °C for 1 h. After removing free biotinylated chemicals by washing with PBS, the samples were subjected to SDS‒PAGE followed by immunoblotting with an antibody against PLD[20]."}, "PLD [6]": {"system": "PLD", "experiment": "PLD activity assay in HCT 116 cells", "type": "cell-based", "conditions": "at 10 μM (Fig. 1c)", "procedure": "as §2"}}}
{"molecule": "O=c1[nH]cc(F)c(=O)[nH]1", "note": "[Compound 5-FU, 5-fluorouracil, reference compound]", "values": [{"measurement": "cell cycle / proliferation of CRC cells, in words", "setting": "DLD1 cells [1]", "result": "decreased the S phase population"}, {"measurement": "cell cycle / S phase in FHC cells, in words", "setting": "FHC cells [2]", "result": "decreased the S phase population"}, {"measurement": "apoptosis of FHC cells, in words", "setting": "FHC cells [3]", "result": "increased the apoptosis of both CRC and FHC cells"}, {"measurement": "apoptosis of CRC cells, in words", "setting": "DLD1 cells [4]", "result": "increased the apoptosis of both CRC and FHC cells"}]}
{"molecule": "O=C(CCCC[C@@H]1SC[C@@H]2NC(=O)N[C@@H]21)NNC(=O)c1ccc2[nH]c(C(=O)Nc3cc(C(F)(F)F)cc(C(F)(F)F)c3)cc2c1", "note": "[Compound A4333]", "values": [{"measurement": "PLD inhibition, in words", "setting": "PLD [5]", "result": "still potent for PLD inhibition"}, {"measurement": "interaction with PLD1 (pull-down)", "setting": "PLD1", "result": "interacted with PLD1"}]}
{"molecule": "C[C@@H](CN1CCC(n2c(=O)[nH]c3cc(Cl)ccc32)CC1)NC(=O)c1ccc2ccccc2c1", "note": "[VU0155069, reference compound]", "values": [{"measurement": "PLD activity remained", "setting": "PLD [6]", "result": 30.4, "unit": "%"}]}
